Reference: ChEMBL document CHEMBL5316325, “Design and Synthesis of 3-Hydroxy-pyridin-4(1H)-ones-Ciprofloxacin Conjugates as Dual Antibacterial and Antibiofilm Agents against Pseudomonas aeruginosa” (J Med Chem, 2023)
In brackets after ≈: the same amount, converted by molar mass.

How the values were obtained:
Format in all cases: functional
[1] = system: Pseudomonas aeruginosa; test: Antibacterial activity against Pseudomonas aeruginosa 1121 in MHB medium assessed as bacterial growth inhibition by CLSI based broth microdilution method
[2] = system: Klebsiella pneumoniae; test: Antibacterial activity against Klebsiella pneumoniae ATCC 700603 in MHB medium assessed as bacterial growth inhibition by CLSI based broth microdilution method
[3] = system: Pseudomonas aeruginosa; test: Antibacterial activity against Pseudomonas aeruginosa PAO1 in MHB medium assessed as bacterial growth inhibition by CLSI based broth microdilution method
[4] = system: Staphylococcus aureus; test: Antibacterial activity against methicillin-resistant Staphylococcus aureus ATCC 515992 in MHB medium assessed as bacterial growth inhibition by CLSI based broth microdilution method
[5] = system: Pseudomonas aeruginosa; test: Antibiofilm activity against Pseudomonas aeruginosa PAO1 in ABTGC medium assessed as biofilm biomass at 1/2 times MIC incubated for 24 hrs by crystal violet staining based assay relative to control
[6] = system: Pseudomonas aeruginosa; test: Antibacterial activity against Pseudomonas aeruginosa 1129 in MHB medium assessed as bacterial growth inhibition by CLSI based broth microdilution method
[7] = system: Pseudomonas aeruginosa; test: Antibacterial activity against Pseudomonas aeruginosa PAO1 in ABTGC medium assessed as bacterial growth inhibition
[8] = system: Pseudomonas aeruginosa; test: Antibiofilm activity against Pseudomonas aeruginosa PAO1 in ABTGC medium assessed as biofilm biomass at 1/4 times MIC incubated for 24 hrs by crystal violet staining based assay relative to control
[9] = system: Pseudomonas aeruginosa; test: Antibacterial activity against Pseudomonas aeruginosa ATCC 27853 in MHB medium assessed as bacterial growth inhibition by CLSI based broth microdilution method
[10] = system: Staphylococcus aureus; test: Antibacterial activity against Staphylococcus aureus ATCC 25923 in MHB medium assessed as bacterial growth inhibition by CLSI based broth microdilution method
[11] = system: Pseudomonas aeruginosa; test: Antibiofilm activity against Pseudomonas aeruginosa PAO1 in ABTGC medium assessed as biofilm biomass at MIC incubated for 24 hrs by crystal violet staining based assay relative to control
[12] = system: Pseudomonas aeruginosa; test: Antibacterial activity against Pseudomonas aeruginosa FB in MHB medium assessed as bacterial growth inhibition by CLSI based broth microdilution method
[13] = system: Escherichia coli; test: Antibacterial activity against Escherichia coli ATCC 25922 in MHB medium assessed as bacterial growth inhibition by CLSI based broth microdilution method
[14] = system: Pseudomonas aeruginosa; test: Antibacterial activity against Pseudomonas aeruginosa 1167 in MHB medium assessed as bacterial growth inhibition by CLSI based broth microdilution method

SMILES	MIC [1] [µM]	MIC [2] [µM]	MIC [3] [µM]	MIC [4] [µM]	Activity [5] [%]	MIC [6] [µM]	MIC [7] [µM]	Activity [8] [%]	MIC [9] [µM]	MIC [10] [µM]	Activity [11] [%]	MIC [12] [µM]	MIC [13] [µM]	MIC [14] [µM]
Cn1cc(O)c(=O)cc1CNC(=O)CCCC(=O)N1CCN(c2cc3c(cc2F)c(=O)c(C(=O)O)cn3C2CC2)CC1	3.44 (≈ 2 µg/mL)	6.72 (≈ 3.91 µg/mL)	0.86 (≈ 0.5 µg/mL)	> 200	189	6.88 (≈ 4 µg/mL)	13.8 (≈ 8 µg/mL)	23.4	3.44 (≈ 2 µg/mL)	13.8 (≈ 8 µg/mL)	75.3	3.44 (≈ 2 µg/mL)	0.11 (≈ 0.064 µg/mL)	1.72 (≈ 1 µg/mL)
Cc1cc(=O)c(O)c(CNC(=O)CCCCCCC(=O)N2CCN(c3cc4c(cc3F)c(=O)c(C(=O)O)cn4C3CC3)CC2)n1C	> 200	> 200	> 200	> 200	114.9	> 200	128 (≈ 81.6 µg/mL)	141.1	> 200	50.2 (≈ 32 µg/mL)	99.9	> 200	6.27 (≈ 4 µg/mL)	> 200
Cc1cc(=O)c(O)cn1CCCNC(=O)CCC(=O)N1CCN(c2cc3c(cc2F)c(=O)c(C(=O)O)cn3C2CC2)CC1	6.72 (≈ 4 µg/mL)	13.4 (≈ 8 µg/mL)	3.36 (≈ 2 µg/mL)	> 200	78.2	6.36 (≈ 3.79 µg/mL)	53.7 (≈ 32 µg/mL)	116.3	6.72 (≈ 4 µg/mL)	6.72 (≈ 4 µg/mL)	92.1	3.36 (≈ 2 µg/mL)	0.42 (≈ 0.25 µg/mL)	3.36 (≈ 2 µg/mL)
Cc1cc(=O)c(O)c(CNC(=O)CCCCC(=O)N2CCN(c3cc4c(cc3F)c(=O)c(C(=O)O)cn4C3CC3)CC2)n1C	3.28 (≈ 2 µg/mL)	6.56 (≈ 4 µg/mL)	1.64 (≈ 1 µg/mL)	> 200	86.3	6.56 (≈ 4 µg/mL)	13.1 (≈ 8 µg/mL)	27	3.28 (≈ 2 µg/mL)	13.1 (≈ 8 µg/mL)	23.3	3.28 (≈ 2 µg/mL)	0.05 (≈ 0.0305 µg/mL)	3.28 (≈ 2 µg/mL)
Cn1cc(O)c(=O)cc1Cn1cc(CCC(=O)N2CCN(c3cc4c(cc3F)c(=O)c(C(=O)O)cn4C3CC3)CC2)nn1	108 (≈ 64 µg/mL)	> 200	27.1 (≈ 16 µg/mL)	> 200	133.7	108 (≈ 64 µg/mL)	> 200	99.4	108 (≈ 64 µg/mL)	> 200	52.1	108 (≈ 64 µg/mL)	3.38 (≈ 2 µg/mL)	54.1 (≈ 32 µg/mL)
Cn1cc(O)c(=O)cc1CNC(=O)CCCCC(=O)N1CCN(c2cc3c(cc2F)c(=O)c(C(=O)O)cn3C2CC2)CC1	1.68 (≈ 1 µg/mL)	6.72 (≈ 4 µg/mL)	0.84 (≈ 0.5 µg/mL)	> 200	110.3	6.72 (≈ 4 µg/mL)	6.72 (≈ 4 µg/mL)	24.9	3.36 (≈ 2 µg/mL)	13.4 (≈ 8 µg/mL)	86.4	3.36 (≈ 2 µg/mL)	0.1 (≈ 0.0596 µg/mL)	1.68 (≈ 1 µg/mL)
O=C(CCC(=O)N1CCN(c2cc3c(cc2F)c(=O)c(C(=O)O)cn3C2CC2)CC1)NCc1cc(=O)c(O)c[nH]1	3.61 (≈ 2 µg/mL)	14.4 (≈ 8 µg/mL)	1.81 (≈ 1 µg/mL)	> 200	98.8	7.23 (≈ 4 µg/mL)	14.4 (≈ 8 µg/mL)	19.9	7.23 (≈ 4 µg/mL)	3.61 (≈ 2 µg/mL)	169.8	7.23 (≈ 4 µg/mL)	0.23 (≈ 0.127 µg/mL)	3.61 (≈ 2 µg/mL)
